Read-outs that look alike come from different tables or passages of the source.
Assays:
Format in all cases: biochemical
[1] = biological target: T1, panel of 60 human kinases (Homo sapiens, UniProt Q15139); test: Radiolabeled ATP kinase assay, panel of 60 kinases (Table S5); conditions: PKCmu/PRKD1; 0.1 μM; 10 μM ATP; read-out: % Enzyme Activity (relative to DSMO controls)
T1 construct: purchased Reaction Biology Corp
T1 sequence (Q15139 1-912): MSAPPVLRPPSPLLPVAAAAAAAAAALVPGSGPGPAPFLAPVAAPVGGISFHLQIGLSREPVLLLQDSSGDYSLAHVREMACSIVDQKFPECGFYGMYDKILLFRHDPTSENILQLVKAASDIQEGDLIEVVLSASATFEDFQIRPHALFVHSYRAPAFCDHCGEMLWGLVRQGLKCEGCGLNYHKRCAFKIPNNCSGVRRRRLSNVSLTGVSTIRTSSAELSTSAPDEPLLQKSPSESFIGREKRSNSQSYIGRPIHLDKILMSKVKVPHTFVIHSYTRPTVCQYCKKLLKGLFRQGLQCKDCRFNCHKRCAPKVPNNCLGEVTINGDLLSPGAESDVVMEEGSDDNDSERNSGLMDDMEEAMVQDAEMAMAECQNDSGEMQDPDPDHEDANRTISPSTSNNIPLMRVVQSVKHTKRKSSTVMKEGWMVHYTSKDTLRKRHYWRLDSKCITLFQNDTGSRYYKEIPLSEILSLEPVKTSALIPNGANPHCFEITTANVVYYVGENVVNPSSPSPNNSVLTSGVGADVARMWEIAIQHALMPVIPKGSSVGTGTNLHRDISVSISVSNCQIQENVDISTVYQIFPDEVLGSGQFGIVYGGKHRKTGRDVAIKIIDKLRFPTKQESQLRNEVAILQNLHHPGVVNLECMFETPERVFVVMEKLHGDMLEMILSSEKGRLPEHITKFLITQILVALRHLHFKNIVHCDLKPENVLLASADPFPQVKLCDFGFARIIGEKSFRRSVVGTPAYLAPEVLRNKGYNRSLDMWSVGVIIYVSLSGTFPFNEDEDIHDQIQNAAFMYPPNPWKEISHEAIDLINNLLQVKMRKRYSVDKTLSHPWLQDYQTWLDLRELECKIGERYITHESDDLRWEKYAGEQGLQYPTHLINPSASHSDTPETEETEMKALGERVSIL
Procedure: (§1) To better understand the biologically relevant targets of compound 1 and its analogs, a second round of cell-free kinase assays was performed. In this expanded assay, we selected ten analogs ranging from moderately to very strongly protective in the CPA assay. These analogs were evaluated for their ability to inhibit a selection of 60 kinases at 0.1 μM and 0.5 μM. […] RNAseq data were used to confirm the expression of each kinase in ES MNs (see Example 12).
(§2) RNAseq data were used to confirm the expression of each kinase in ES motor neurons (see Example 12).

[2] = biological target: T2, panel of 60 human kinases (Homo sapiens, UniProt Q00526); test: as above; conditions: CDK3/cyclin E; 0.1 μM; 10 μM ATP; read-out: % Enzyme Activity (relative to DSMO controls)
T2 construct: purchased Reaction Biology Corp
T2 sequence (Q00526 whole entry): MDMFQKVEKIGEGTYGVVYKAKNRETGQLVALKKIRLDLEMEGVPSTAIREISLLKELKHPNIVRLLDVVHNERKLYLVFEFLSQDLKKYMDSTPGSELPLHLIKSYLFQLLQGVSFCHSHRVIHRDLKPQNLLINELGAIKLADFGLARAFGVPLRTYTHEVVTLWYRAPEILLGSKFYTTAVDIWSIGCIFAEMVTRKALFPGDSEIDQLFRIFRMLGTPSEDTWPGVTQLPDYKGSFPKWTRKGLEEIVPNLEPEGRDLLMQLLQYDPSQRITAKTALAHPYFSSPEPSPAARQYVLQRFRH
Procedure: as §1, §2

[3] = biological target: T3, panel of 60 human kinases (Homo sapiens, UniProt P49840); test: as above; conditions: GSK3a; 0.1 μM; 10 μM ATP; read-out: % Enzyme Activity (relative to DSMO controls)
T3 construct: purchased Reaction Biology Corp
T3 sequence (P49840 whole entry): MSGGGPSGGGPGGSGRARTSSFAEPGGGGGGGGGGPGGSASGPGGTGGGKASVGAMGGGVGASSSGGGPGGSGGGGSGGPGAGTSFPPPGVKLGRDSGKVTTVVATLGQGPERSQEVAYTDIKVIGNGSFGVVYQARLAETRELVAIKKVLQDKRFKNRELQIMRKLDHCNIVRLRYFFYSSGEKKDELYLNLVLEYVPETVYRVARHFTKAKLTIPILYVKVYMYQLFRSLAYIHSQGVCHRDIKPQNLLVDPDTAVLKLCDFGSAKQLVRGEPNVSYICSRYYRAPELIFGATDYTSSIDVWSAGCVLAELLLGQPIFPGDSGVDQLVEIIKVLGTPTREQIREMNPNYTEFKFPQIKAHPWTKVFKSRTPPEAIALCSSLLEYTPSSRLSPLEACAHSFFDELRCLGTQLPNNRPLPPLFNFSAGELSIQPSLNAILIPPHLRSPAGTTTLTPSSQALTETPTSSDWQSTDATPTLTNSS
Procedure: as §1, §2

[4] = biological target: T4, panel of 60 human kinases (Homo sapiens, UniProt O75460); test: as above; conditions: ERN1/IRE1; 0.1 μM; 10 μM ATP; read-out: % Enzyme Activity (relative to DSMO controls)
T4 construct: purchased Reaction Biology Corp
T4 sequence (O75460 19-977): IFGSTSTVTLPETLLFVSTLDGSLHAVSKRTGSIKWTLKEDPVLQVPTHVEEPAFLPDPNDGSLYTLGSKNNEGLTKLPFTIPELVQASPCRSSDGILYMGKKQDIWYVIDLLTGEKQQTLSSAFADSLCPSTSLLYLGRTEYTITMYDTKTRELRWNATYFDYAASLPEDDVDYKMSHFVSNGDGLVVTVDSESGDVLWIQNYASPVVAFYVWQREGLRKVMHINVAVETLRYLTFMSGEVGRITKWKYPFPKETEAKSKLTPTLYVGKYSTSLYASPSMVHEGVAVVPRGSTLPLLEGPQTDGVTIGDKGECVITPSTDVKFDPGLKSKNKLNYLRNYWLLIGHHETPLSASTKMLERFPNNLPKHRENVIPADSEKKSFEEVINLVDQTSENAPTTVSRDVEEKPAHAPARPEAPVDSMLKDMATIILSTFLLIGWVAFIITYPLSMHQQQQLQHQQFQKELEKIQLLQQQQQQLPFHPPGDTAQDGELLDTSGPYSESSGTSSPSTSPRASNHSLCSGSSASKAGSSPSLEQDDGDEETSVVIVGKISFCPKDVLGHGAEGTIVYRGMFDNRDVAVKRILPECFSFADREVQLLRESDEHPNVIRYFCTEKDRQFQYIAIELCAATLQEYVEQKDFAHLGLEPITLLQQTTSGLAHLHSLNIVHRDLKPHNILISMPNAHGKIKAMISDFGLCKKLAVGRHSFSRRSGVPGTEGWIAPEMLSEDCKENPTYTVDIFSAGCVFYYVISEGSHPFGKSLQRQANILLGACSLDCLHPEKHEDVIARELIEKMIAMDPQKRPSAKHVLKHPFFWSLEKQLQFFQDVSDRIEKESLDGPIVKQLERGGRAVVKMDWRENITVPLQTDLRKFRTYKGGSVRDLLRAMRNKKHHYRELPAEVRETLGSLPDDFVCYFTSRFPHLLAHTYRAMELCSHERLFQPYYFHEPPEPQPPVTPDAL
Procedure: as §1, §2

[5] = biological target: T5, panel of 60 human kinases (Homo sapiens, UniProt Q13164); test: as above; conditions: 0.1 μM, 10 μM ATP, read-out: % Enzyme Activity (relative to DSMO controls)
T5 construct: purchased Reaction Biology Corp
T5 sequence (Q13164 whole entry): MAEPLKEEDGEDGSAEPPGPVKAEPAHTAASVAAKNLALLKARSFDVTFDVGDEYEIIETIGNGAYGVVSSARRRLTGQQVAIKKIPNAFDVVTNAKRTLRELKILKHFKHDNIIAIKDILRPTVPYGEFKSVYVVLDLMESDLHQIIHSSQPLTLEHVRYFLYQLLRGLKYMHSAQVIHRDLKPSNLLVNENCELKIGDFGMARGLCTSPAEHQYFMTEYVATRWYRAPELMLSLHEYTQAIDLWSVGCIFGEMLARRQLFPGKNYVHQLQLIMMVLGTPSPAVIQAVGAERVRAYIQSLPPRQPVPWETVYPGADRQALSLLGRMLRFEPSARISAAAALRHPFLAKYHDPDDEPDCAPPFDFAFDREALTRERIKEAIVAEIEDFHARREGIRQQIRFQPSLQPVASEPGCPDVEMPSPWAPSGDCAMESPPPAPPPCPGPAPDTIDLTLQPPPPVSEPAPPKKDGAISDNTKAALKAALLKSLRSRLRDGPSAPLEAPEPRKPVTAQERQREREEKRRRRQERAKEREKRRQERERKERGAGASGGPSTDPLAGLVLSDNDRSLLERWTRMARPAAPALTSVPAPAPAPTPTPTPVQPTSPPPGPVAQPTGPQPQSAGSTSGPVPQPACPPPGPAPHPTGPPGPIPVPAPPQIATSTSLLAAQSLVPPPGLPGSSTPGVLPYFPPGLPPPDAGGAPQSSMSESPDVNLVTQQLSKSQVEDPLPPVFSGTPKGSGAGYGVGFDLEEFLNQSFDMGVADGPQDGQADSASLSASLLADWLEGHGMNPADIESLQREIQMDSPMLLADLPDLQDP
Procedure: as §1, §2

[6] = biological target: T6, panel of 60 human kinases (Homo sapiens, UniProt Q92630); test: as above; conditions: DYRK2; 0.1 μM; 10 μM ATP; read-out: % Enzyme Activity (relative to DSMO controls)
T6 construct: purchased Reaction Biology Corp
T6 sequence (Q92630 1-601): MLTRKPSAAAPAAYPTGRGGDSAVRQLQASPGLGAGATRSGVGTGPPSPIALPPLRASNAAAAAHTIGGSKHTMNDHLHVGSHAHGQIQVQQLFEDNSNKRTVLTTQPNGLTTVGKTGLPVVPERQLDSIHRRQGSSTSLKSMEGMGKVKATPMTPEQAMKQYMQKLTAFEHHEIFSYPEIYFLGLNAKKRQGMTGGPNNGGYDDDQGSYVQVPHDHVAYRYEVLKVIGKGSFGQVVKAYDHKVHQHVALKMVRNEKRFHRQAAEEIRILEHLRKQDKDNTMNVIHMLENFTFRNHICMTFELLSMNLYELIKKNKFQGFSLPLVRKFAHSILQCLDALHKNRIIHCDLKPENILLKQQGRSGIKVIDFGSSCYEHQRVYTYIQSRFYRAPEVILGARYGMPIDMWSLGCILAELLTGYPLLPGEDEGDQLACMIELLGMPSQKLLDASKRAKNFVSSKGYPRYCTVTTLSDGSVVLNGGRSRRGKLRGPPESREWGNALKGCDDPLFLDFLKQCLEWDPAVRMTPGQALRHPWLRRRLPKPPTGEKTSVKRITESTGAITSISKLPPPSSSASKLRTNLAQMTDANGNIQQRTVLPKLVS
Procedure: as §1, §2

MLK1/MAP3K9 = biological target: T7, MLK1/MAP3K9 (Homo sapiens, UniProt P80192); test: Radiolabeled ATP kinase assay (Reaction Biology Corp.), MLK1; conditions: [Cmpd] 0.1 μM, 10 μM ATP
T7 construct: purchased Reaction Biology Corp
T7 sequence (P80192 whole entry): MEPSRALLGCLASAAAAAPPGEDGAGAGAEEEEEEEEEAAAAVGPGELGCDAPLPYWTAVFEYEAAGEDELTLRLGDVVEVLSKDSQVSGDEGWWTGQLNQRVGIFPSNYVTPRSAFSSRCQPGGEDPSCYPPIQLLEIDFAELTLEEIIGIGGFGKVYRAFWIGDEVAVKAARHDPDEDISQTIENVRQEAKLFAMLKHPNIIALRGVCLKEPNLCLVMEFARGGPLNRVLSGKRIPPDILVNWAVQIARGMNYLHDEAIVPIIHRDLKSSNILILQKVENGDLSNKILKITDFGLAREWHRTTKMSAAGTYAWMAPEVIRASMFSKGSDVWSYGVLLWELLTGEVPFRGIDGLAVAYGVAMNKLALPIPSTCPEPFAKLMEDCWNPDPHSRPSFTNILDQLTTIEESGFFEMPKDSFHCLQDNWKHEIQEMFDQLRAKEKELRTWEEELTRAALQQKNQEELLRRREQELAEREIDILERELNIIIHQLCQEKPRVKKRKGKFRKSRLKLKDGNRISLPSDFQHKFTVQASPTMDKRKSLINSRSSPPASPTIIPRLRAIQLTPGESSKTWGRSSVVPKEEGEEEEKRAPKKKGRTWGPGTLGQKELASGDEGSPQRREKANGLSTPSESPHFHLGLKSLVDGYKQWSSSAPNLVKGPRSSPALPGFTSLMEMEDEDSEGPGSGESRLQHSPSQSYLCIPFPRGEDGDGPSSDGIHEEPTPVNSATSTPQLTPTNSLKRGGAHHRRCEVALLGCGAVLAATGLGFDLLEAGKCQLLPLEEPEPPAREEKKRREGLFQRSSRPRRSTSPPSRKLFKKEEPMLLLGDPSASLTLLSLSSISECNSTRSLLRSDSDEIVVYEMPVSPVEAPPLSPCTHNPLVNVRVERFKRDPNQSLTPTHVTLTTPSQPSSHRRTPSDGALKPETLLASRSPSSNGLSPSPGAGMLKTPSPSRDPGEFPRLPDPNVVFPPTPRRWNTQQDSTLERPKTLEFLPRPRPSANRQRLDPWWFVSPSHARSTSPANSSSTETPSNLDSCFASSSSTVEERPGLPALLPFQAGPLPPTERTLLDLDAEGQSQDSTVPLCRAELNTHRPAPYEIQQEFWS
Procedure: Meanwhile, the same analogs were analyzed in a radiolabeled ATP assay (10 μM ATP; Reaction Biology Corp.) to compare the extent to which they could inhibit the activity of HGK, MLK1, or MLK3 in a cell-free environment (Table S3 and S4).

[7] = read-out: % Enzyme Activity Remaining (relative to DMSO controls), MLK1/MAP3K9, Data 1
[8] = read-out: % Enzyme Activity Remaining (relative to DMSO controls), MLK1/MAP3K9, Data 2

Compound	remaining activity at 0.1 µM [1]	remaining activity at 0.1 µM [2]	remaining activity at 0.1 µM [3]	remaining activity at 0.1 µM [4]	remaining activity at 0.1 µM ([5]; ERK5/MAPK7 (CD))	remaining activity at 0.1 µM ([5]; ERK5/MAPK7)	remaining activity at 0.1 µM [6]	remaining activity at 0.1 µM (MLK1/MAP3K9; [7])	remaining activity at 0.1 µM (MLK1/MAP3K9; [8])
CN1CCN(Cc2ccc(-c3cnc4[nH]cc(-c5ccc6[nH]ccc6c5)c4c3)cc2)CC1 [Compound 1, 3-(1H-Indol-5-yl)-5-(4-((4-methylpiperazin-1-yl)methyl)phenyl)-1H-pyrrolo[2,3-b]pyridine, reference compound]	11.4%	89.1%	90.8%	108%	87.5%	109%	44%	16.2%	14.2%
CN1CCN(Cc2ccc(-c3cnc4[nH]cc(-c5cccc(Cl)c5)c4c3)cc2)CC1 [Compound 7ad, 3-(3-Chlorophenyl)-5-(4-((4-methylpiperazin-1-yl)methyl)phenyl)-1H-pyrrolo[2,3-b]pyridine]	9.7%	95.5%	97.1%	102%	93.9%	109%	69.7%	61.9%	63.6%
CN1CCN(Cc2ccc(-c3cnc4[nH]cc(-c5cnn(Cc6ccccc6)c5)c4c3)cc2)CC1 [Compound 7ah, 3-(1-Benzyl-1H-pyrazol-4-yl)-5-(4-((4-methylpiperazin-1-yl)methyl)phenyl)-1H-pyrrolo[2,3-b]pyridine]	4.39%	65.2%	32.5%	104%	52.1%	105%	59.3%	51.1%	48.2%
Cc1nn(C)c(C)c1-c1c[nH]c2ncc(-c3ccc(CN4CCN(C)CC4)cc3)cc12 [Compound 7ai, 5-(4-((4-Methylpiperazin-1-yl)methyl)phenyl)-3-(1,3,5-trimethyl-1H-pyrazol-4-yl)-1H-pyrrolo[2,3-b]pyridine]	14.2%	96%	84.7%	102%	86%	101%	66.5%	93.3%	90.5%
CN1CCN(Cc2ccc(-c3cnc4[nH]cc(-c5ccccc5Cl)c4c3)cc2)CC1 [Compound 7as, 3-(2-Chlorophenyl)-5-(4-((4-methylpiperazin-1-yl)methyl)phenyl)-1H-pyrrolo[2,3-b]pyridine]	9.63%	85.5%	96%	97.5%	51.2%	107%	18.2%	72.7%	73.3%
COc1ccccc1-c1c[nH]c2ncc(-c3ccc(CN4CCN(C)CC4)cc3)cc12 [Compound 7at, 3-(2-Methoxyphenyl)-5-(4-((4-methylpiperazin-1-yl)methyl)phenyl)-1H-pyrrolo[2,3-b]pyridine]	38.7%	72.7%	82.8%	101%	92.7%	108%	96.8%	31.3%	30.6%
CN1CCN(Cc2ccc(-c3cnc4[nH]cc(-c5ccc6c(c5)OCCO6)c4c3)cc2)CC1 [Compound 7d, 3-(2,3-Dihydrobenzo[b][1,4]dioxin-6-yl)-5-(4-((4-methylpiperazin-1-yl)methyl)phenyl)-1H-pyrrolo[2,3-b]pyridine]	4.34%	76.7%	13.6%	107%	87.5%	96.8%	8.19%	25.6%	23.6%
CN1CCN(Cc2ccc(-c3cnc4[nH]cc(-c5ccncc5)c4c3)cc2)CC1 [Compound 7n, 5-(4-((4-Methylpiperazin-1-yl)methyl)phenyl)-3-(pyridin-4-yl)-1H-pyrrolo[2,3-b]pyridine]	31.5%	72.3%	75.3%	107%	98.9%	90.6%	63.6%	88.9%	88.7%
CN1CCN(Cc2ccc(-c3cnc4[nH]cc(-c5ccoc5)c4c3)cc2)CC1 [Compound 7w, 3-(Furan-3-yl)-5-(4-((4-methylpiperazin-1-yl)methyl)phenyl)-1H-pyrrolo[2,3-b]pyridine]	20.4%	93.7%	75.3%	102%	96.3%	108%	90.4%	76%	79.3%

From patent US12227500B2, “Substituted pyrrolo[2,3-b]pyridines for suppressing toxic endoplasmic reticulum stress” (THE TRUSTEES OF COLUMBIA UNIVERSITY IN THE CITY OF NEW YORK, priority 2018, dated 2025)
